Source: paper PMC10459693, “Toward Stability Enhancement of NTS1R-Targeted Radioligands: Structural Interventions on [^99mTc]Tc-DT1” (Pharmaceutics, 2023)
Square brackets hold non-standard residues; d marks the D form. Peptide text beside a SMILES is read from it. * marks the point of attachment. Palmitoyl = CCCCCCCCCCCCCCCC(=O)*; X1 = NCCNCC(CNCCN)C(=O)*

Biological target: T1, human NTS1R (Homo sapiens, UniProt P30989)
T1 construct: Cell membrane homogenates from WiDr cells were collected; host or cells: WiDr human colorectal adenocarcinoma cells (membrane homogenates)
T1 sequence (P30989 whole entry): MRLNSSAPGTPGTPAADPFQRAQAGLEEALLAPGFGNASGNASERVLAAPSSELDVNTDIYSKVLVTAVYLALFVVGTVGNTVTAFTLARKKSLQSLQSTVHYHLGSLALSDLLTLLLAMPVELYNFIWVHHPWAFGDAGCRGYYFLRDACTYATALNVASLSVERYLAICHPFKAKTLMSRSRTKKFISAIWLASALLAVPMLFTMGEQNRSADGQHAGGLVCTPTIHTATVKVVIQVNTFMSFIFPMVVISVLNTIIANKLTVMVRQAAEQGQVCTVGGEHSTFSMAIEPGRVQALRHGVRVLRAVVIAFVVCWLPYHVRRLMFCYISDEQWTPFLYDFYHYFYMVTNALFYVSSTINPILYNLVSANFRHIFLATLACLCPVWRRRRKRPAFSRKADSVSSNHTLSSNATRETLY
Assay: Competition binding against [^125I]I-Tyr^3-NT in WiDr cell membranes
Settings: for IC50: displacement of [^125I]I-Tyr^3-NT, WiDr cell membranes, 1 h at 22 °C, mean ± sd
Procedure: Cell membrane homogenates from WiDr cells were collected and stored in Tris/EDTA (10 mM Tris, 0.1 mM EDTA, pH 7.4) solution at −80 °C, as previously described. On the day of the experiment, the aliquots thereof were thawed, combined, and diluted in cold binding buffer (BB: 50 mM HEPES, 5.5 mM MgCl2, 0.1 mg/mL bacitracin, 1% w/v BSA, pH 7.4). A dilution series of each test peptide (10^−12–10^−5 M) and a fresh solution of [^125I]I-Tyr^3-NT (~40,000 cpm/70 μL, 214 pM) were prepared and kept on ice. In each RIA tube per placed on ice (in triplicate for each concentration point), the following ice-cold solutions were added: test peptide solution (30 μL), the [^125I]I-Tyr^3-NT radioligand (70 μL), and membrane homogenate (200 μL). Tubes were incubated under constant stirring for 1 h at 22 °C in an Incubator-Orbital Shaker (MPM Instr. Srl; Bernareggio, Italy). The incubation was terminated by placing the tubes on ice and adding ice-cold washing buffer (10 mM HEPES, 150 mM NaCl, pH 7.4). Samples were rapidly passed through Whatman GF/B filters (presoaked for 1 h in BB) on a 48-sample Brandel Cell Harvester (Adi Hassel Ingenieur Büro, Munich, Germany). Separate filters were measured for radioactivity on the γ-counter, and the half maximal inhibition concentration (IC50) was calculated applying a non-linear one-site model (GraphPad Prism Software 6.0, San Diego, CA, USA).

Structure (SMILES): CC[C@H](C)[C@H](NC(=O)[C@H](Cc1ccc(O)cc1)NC(=O)[C@@H]1CCCN1C(=O)[C@H](CCCNC(=N)N)NC(=O)[C@H](CCCNC(=N)N)NC(=O)CNC(=O)C(CNCCN)CNCCN)C(=O)N[C@@H](CC(C)C)C(=O)N[C@H](CC(N)=O)C(=O)O [DT7, N4-Gly-Arg-Arg-Pro-Tyr-Ile-Leu-DAsn-OH] (X1-GRRPYIL[dN]-OH)
- drop of binding affinity to the NTS1R compared to DT1 (by a power of): ~100
- IC50: 29.1 ± 4.11 nM

Structure (SMILES): CCCCCCCCCCCCCCCC(=O)NCCCC[C@H](NC(=O)C(CNCCN)CNCCN)C(=O)N[C@@H](CCCNC(=N)N)C(=O)N[C@@H](CCCNC(=N)N)C(=O)N1CCC[C@H]1C(=O)N[C@@H](Cc1ccc(O)cc1)C(=O)N[C@H](C(=O)N[C@@H](CC(C)C)C(=O)O)[C@@H](C)CC [DT9] (X1-K(Palmitoyl)RRPYIL-OH)
- IC50: 0.89 ± 0.7 nM
